Assay results reported in patent US20120245184A1 (Aderans Research Institute, Inc., priority 2006, published 2012).
Structures can show the parent of a compound that is named as a salt.

Columns and labels:
[1] = system: C57BL/6 male mice; assay: C57BL/6 hair growth after topical dosing; format: in vivo, mouse; conditions: dosed topically once on shaved lower back; visually graded for melanogenesis and hair regrowth
Description: (§1) A mouse model of male pattern baldness is used to investigate the effectiveness of the present compounds for growing hair. Agonists for the sonic hedgehog pathway that act by binding and activating Smoothened were tested in a formulation of 50:30:20 PG:EtOH:water or 5:95 DMSO:acetone vehicle. C57BL/6 male mice (48-52 days old on arrival) from Charles River Labs were used on the study. The mice were housed and cared for according to established procedures. Food and water were ad libitum. On Day 0, the mice were shaved on their lower back, an area of ˜1.5 inches×˜2 inches with Wahl clippers using a surgical blade. On day −3, the mice were anesthetized with isoflurane, their back was rinsed with a pad of 70% ethanol, a placebo pellet or a DHT pellet (2.5 mg 21 day pellet) were implanted subcutaneously between the shoulder blades with a 10 gauge trochar. DHT pellet transplantation results in maintenance of existing hair follicles in the resting (telogen) phase. The hole was stapled with a sterile autoclip and the mice were returned to their cage after awaking. The mice were dosed topically once and visually graded daily, except weekends, for melanogenesis and hair regrowth of fur in the dosed area (Table 4).

[2] = system: C57BL/6 male mice; assay: DHT-induced alopecia (mouse model of male pattern baldness); format: in vivo; conditions: DHT pellet (2.5 mg 21 day) implanted subcutaneously; dosed topically once; visually graded for melanogenesis and hair regrowth
Description: as §1
In the absence of treatment with the present compounds, the follicles remain in telogen rather than following the normal time course of the mouse hair cycle.

[3] = system: sonic hedgehog pathway; assay: Human hedgehog reporter assay Daoy-GliLuc (DGL); format: cell-based; conditions: Daoy human medulloblastoma cells, gli-luciferase reporter; read-out: Daoy Avg. EC50
In short: (§2)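 Stable gli-luciferase reporter lines (mouse TM3; human Daoy and HEPM) switched to 0.5% FBS medium, given compounds at 1-5 μM with or without octyl-modified hedgehog protein (1-5 ng/ml) for 24 hrs. Luminescence read; eleven-point 1:3 dose curves, activation expressed as percentage of plate controls (AMAX).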

[4] = system: sonic hedgehog pathway; assay: Hedgehog reporter assay (gli-luciferase) in S12 cells; format: cell-based; conditions: S12 mouse embryonic mesenchymal cells, read-out: S12 Avg. EC50
Text: Mouse (TM3: mouse Leydig cells; S12: mouse embryonic mesenchymal cells) and human (Daoy: human medulloblastoma cell; HepM: human embryonic palatal mesenchymal cell) cell lines are used to screen small molecules for their ability to modulate the activity of the sonic hedgehog pathway (Table 1, Table 2, and Table 3). Stable hedgehog pathway reporter cell lines are established by specific antibiotic selection following transfection of a reporter plasmid containing a luciferase gene located directly downstream from the gli promoter. Consequently, any observable changes in cellular luciferase activity may be attributed to changes in sonic hedgehog pathway activity in mouse and human cells, respectively, since gli is the major by-product of this pathway. To calculate activity, we generate an eleven point dose curve for each compound using 1:3 dilutions in 96 well assay plates. Each plate tested also contains low and high control to establish maximal pathway activation so to establish/compare a percentage activation of each tested compound (AMAX) on respective plates. Also we calculate EC50 values, or a concentration where the pathway will be exactly 50% activated, for each tested compound to determine potency. In these cell lines, compounds that register >20% AMAX values are considered active.
Stable hedgehog pathway reporter cell lines are established following specific antibiotic selection following transfection of a reporter plasmid
In short, typically cells are plated in MicroTiter-plates at 10,000-20,000 cells per well, in growth media (containing 10%-20% FBS). After 48-72 hrs (HGL and DGL respectively) the media in the assay plates is switched to low-serum containing media (0.5% FBS). At that time compounds are added (at 1-5 μM) to the assay plates, in the presence or absence of hedgehog protein (octyl-modified version; 1-5 ng/ml). After another 24 hrs of incubation, the media from the assay plates is discarded and replaced with luciferase assay-mix. Subsequently, plates are incubated at RT for ˜15-30 mins and then read in a luminometer. [note: addition of the Hedgehog protein, although not critical, will sensitize the assay allowing the identification of weak actives].

[5] = system: sonic hedgehog pathway; assay: Human hedgehog reporter assay HEPM-GliLuc (HGL); format: cell-based; conditions: HepM human embryonic palatal mesenchymal cells, gli-luciferase reporter; read-out: HEPM Avg. EC50
In short: as §2

[6] = system: sonic hedgehog pathway; assay: Hedgehog reporter assay (gli-luciferase) in TM3 cells; format: cell-based, mouse; conditions: TM3 mouse Leydig cells, gli-luciferase reporter; read-out: TM3 Avg. EC50
In short: as §2

| SMILES | C57BL/6 Hair Growth [1] | Androgenetic Alopecia [2] | EC50 [3] [nM] | EC50 [4] [nM] | EC50 [5] [nM] | EC50 [6] [nM] |
| --- | --- | --- | --- | --- | --- | --- |
| CN[C@H]1CC[C@H](N(Cc2cc(-c3ccccc3)ccc2OC)C(=O)c2sc3ccccc3c2Cl)CC1 | yes | yes | – | – | – | – |
| CN[C@H]1CC[C@H](N(Cc2cc(-c3cc(C)nc(C)c3)ccc2OC)C(=O)c2sc3ccccc3c2Cl)CC1 | yes | yes | – | – | – | – |
| CN[C@H]1CC[C@H](N(Cc2cc(-c3ccc(C(N)=O)cc3)ccc2OC)C(=O)c2sc3c(F)ccc(F)c3c2Cl)CC1 | yes | yes | – | – | – | – |
| CN[C@H]1CC[C@H](N(Cc2cc(-c3ccnc(C)c3)ccc2OC)C(=O)c2sc3ccccc3c2Cl)CC1 | yes | yes | – | – | – | – |
| CN[C@H]1CC[C@H](N(Cc2cc(-c3ccc(S(C)(=O)=O)cc3)ccc2OC)C(=O)c2sc3ccccc3c2Cl)CC1 | yes | yes | – | – | – | – |
| CCOc1ccc(-c2ccc(C)nc2)cc1CN(C(=O)c1sc2ccccc2c1Cl)[C@H]1CC[C@H](NC)CC1 | yes | – | – | – | – | – |
| CN[C@H]1CC[C@H](N(Cc2cc(-c3ccnc(C(=O)N(C)C)c3)ccc2OC)C(=O)c2sc3c(F)ccc(F)c3c2Cl)CC1 | yes | yes | – | – | – | – |
| CN[C@H]1CC[C@H](N(Cc2cc(-c3ccncc3)ccc2OC)C(=O)c2sc3ccccc3c2Cl)CC1 | yes | yes | – | – | – | – |
| CN[C@H]1CC[C@H](N(Cc2cc(-c3ccc(NS(C)(=O)=O)nc3)ccc2OC)C(=O)c2sc3c(F)ccc(F)c3c2Cl)CC1 | yes | – | – | – | – | – |
| CCOc1ccc(-c2ccc(C#N)cc2)cc1CN(C(=O)c1sc2ccccc2c1Cl)[C@H]1CC[C@H](NC)CC1 | yes | – | – | – | – | – |
| CN[C@H]1CC[C@H](N(Cc2cc(-c3ccnc(C(=O)OC)c3)ccc2OC)C(=O)c2sc3c(F)ccc(F)c3c2Cl)CC1 | yes | yes | – | – | – | – |
| CN[C@H]1CC[C@H](N(Cc2cc(-c3ccnc(C(=O)O)c3)ccc2OC)C(=O)c2sc3c(F)ccc(F)c3c2Cl)CC1 | no | – | – | – | – | – |
| CN[C@H]1CC[C@H](N(Cc2cc(-c3ccc(N)nc3)ccc2OC)C(=O)c2sc3cccc(F)c3c2Cl)CC1 [362 (R13), 3-Chloro-4-fluoro-benzo[b]thiophene-2-carboxylic acid[5-(6-amino-pyridin-3-yl)-2-methoxy-benzyl]-(4-methylamino-cyclohexyl)-amide dihydrochloride] | – | – | < 50 | < 50 | < 50 | < 50 |
| CNC1CCC(N(Cc2cc(-c3ccc(C(C)=O)cc3)ccc2OC)C(=O)c2sc3c(F)ccc(F)c3c2Cl)CC1 (stereo not drawn) [Compound 332, 3-Chloro-4,7-difluoro-benzo[b]thiophene-2-carboxylic acid (4′-acetyl-4-methoxy-biphenyl-3-ylmethyl)-(4-methylamino-cyclohexyl)-amide hydrochloride] | – | – | < 50 | < 50 | < 50 | < 50 |
| CNC1CCC(N(Cc2cc(-c3ccc(C(=O)N(C)C)cc3)ccc2OC)C(=O)c2sc3c(F)ccc(F)c3c2Cl)CC1 (stereo not drawn) [Compound 333, 3-Chloro-4,7-difluoro-benzo[b]thiophene-2-carboxylic acid (4′-dimethylcarbamoyl-4-methoxy-biphenyl-3-ylmethyl)-(4-methylamino-cyclohexyl)-amide hydrochloride] | – | – | < 50 | < 50 | < 50 | < 50 |
| CC[C@H]1CC[C@@H](N(Cc2cc(-c3ccc(C)cc3)ccc2OC)C(=O)C2=C(C)c3c(C)ccc(C)c3C2)CC1 [Compound 334, 3-Chloro-4,7-difluoro-benzo[b]thiophene-2-carboxylic acid[2-methoxy-5-(6-methyl-pyridin-3-yl)-benzyl]-(4-methylamino-cyclohexyl)-amide bis(trifluoroacetate)] | – | – | < 50 | < 50 | < 50 | < 50 |
| CN[C@H]1CC[C@@H](N(Cc2cc(-c3ccc(S(C)(=O)=O)cc3)ccc2OC)C(=O)C2=C(Cl)c3c(C)ccc(C)c3C2)CC1 [Compound 335, 3-Chloro-4,7-difluoro-benzo[b]thiophene-2-carboxylic acid(4′-methanesulfonyl-4-methoxy-biphenyl-3-ylmethyl)-(4-methylamino-cyclohexyl)-amide hydrochloride] | – | – | < 50 | < 50 | < 50 | < 50 |
| CN[C@H]1CC[C@@H](N(Cc2cc(-c3ccc(N(C)C(C)=O)cc3)ccc2OC)C(=O)c2sc3c(C)ccc(C)c3c2C)CC1 [Compound 336, 3-Chloro-4,7-difluoro-benzo[b]thiophene-2-carboxylic acid[4′-(acetyl-methyl-amino)-4-methoxy-biphenyl-3-ylmethyl]-(4-methylamino-cyclohexyl)-amide hydrochloride] | – | – | < 50 | < 50 | < 50 | < 50 |
| CN[C@H]1CC[C@@H](N(Cc2cc(-c3ccc(CO)cc3)ccc2OC)C(=O)c2sc3c(C)ccc(C)c3c2Cl)CC1 [Compound 338, 3-Chloro-4,7-difluoro-benzo[b]thiophene-2-carboxylic acid(4′-hydroxymethyl-4-methoxy-biphenyl-3-ylmethyl)-(4-methylamino-cyclohexyl)-amide trifluoroacetate] | – | – | < 50 | < 50 | < 50 | < 50 |
| CNC1CCC(N(Cc2cc(-c3ccnc(C(N)=O)c3)ccc2OC)C(=O)c2sc3c(F)ccc(F)c3c2Cl)CC1 (stereo not drawn) [Compound 354 (R17), 4-(3-{[(3-Chloro-4,7-difluoro-benzo[b]thiophene-2-carbonyl)-(4-methylamino-cyclohexyl)-amino]-methyl}-4-methoxy-phenyl)-pyridine-2-carboxylic acid amide dihydrochloride] | – | – | < 50 | < 50 | < 50 | < 50 |
| CNc1cc(-c2ccc(OC)c(CN(C(=O)c3sc4c(F)ccc(F)c4c3Cl)C3CCC(NC)CC3)c2)ccn1 (stereo not drawn) [Compound 357, 3-Chloro-4,7-difluoro-benzo[b]thiophene-2-carboxylic acid[2-methoxy-5-(2-methylamino-pyridin-4-yl)-benzyl]-(4-methylamino-cyclohexyl)-amide bis(trifluoroacetate)] | – | – | < 50 | < 50 | < 50 | < 50 |
| CNC1CCC(N(Cc2cc(-c3ccccn3)ccc2OC)C(=O)c2sc3c(F)ccc(F)c3c2Cl)CC1 (stereo not drawn) [Compound 367, 3-Chloro-4,7-difluoro-benzo[b]thiophene-2-carboxylic acid (2-methoxy-5-pyridin-2-yl-benzyl)-(4-methylamino-cyclohexyl)-amide dihydrochloride] | – | – | < 50 | < 50 | < 50 | < 50 |
| CNC1CCC(N(Cc2cc(-c3ccnc(C(=O)OC)c3)ccc2OC)C(=O)c2sc3c(F)ccc(F)c3c2Cl)CC1 (stereo not drawn) [Compound R5, Methyl 4-(3-{[(3-chloro-4,7-difluoro-benzo[b]thiophene-2-carbonyl)-(4-methylamino-cyclohexyl)-amino]-methyl}-4-methoxy-phenyl)-pyridine-2-carboxylate] | – | – | < 50 | < 50 | < 50 | < 50 |
| CN[C@H]1CC[C@H](N(Cc2cc(-c3ccc(N)nc3)ccc2OC)C(=O)c2sc3cccc(F)c3c2Cl)CC1 [drawing 702] | yes | yes | – | – | – | – |
